# Assay results as given in patent US8663928B2, “Method for the detection of post-translational modifications” (CIS BIO International, priority 2006, dated 2014).
# Columns and labels:
# [1] = target: T1, Cam kinase II (Homo sapiens, UniProt Q13557); experiment: TR-FRET measurement of the phosphorylation of a generic protein substrate by Cam kinase II in co-transfected HEK293 cells; format: cell-based; conditions: FIG. 2; ionomycin 1 μM, 5 min; HEK293 co-transfected with substrate plasmid and CamKII delta
# T1 construct: expressed in transfected cells; host or cells: HEK293
# Protocol: 8000 cells HEK293 are either transfected with increasing quantities of plasmid coding for the substrate alone (Identical to Example 1), or co-transfected with the same quantities of plasmid coding for the substrate and 25 ng of CamKII 6-pcDNA 3.1 (plasmid coding for Cam kinase II). The transfection is carried out as described in Example 1.
# The cells are then cultured for 48 hours at 37° C. in DMEM medium, comprising 10% fcetal calf serum and 1% antibiotic and antifungal, then for 16 hours in the same medium without serum.
# The cells are stimulated for 5 min in the presence of ionomycin 1 μM (Sigma), and lysed as described above.
# The phosphorylation of the protein substrate is detected as described in Example 1.
# [2] = target: T2, Akt1 (Homo sapiens, UniProt P31749); experiment: TR-FRET measurement of the phosphorylation of a generic protein substrate by Akt1 in co-transfected HEK293 cells, with total protein substrate; format: cell-based
# T2 construct: expressed in transfected cells; host or cells: HEK293
# Protocol: 8000 HEK293 cells (ATCC) are either transfected with increasing quantities of plasmid coding for the substrate alone, or co-transfected with the same quantities of plasmid coding for the substrate and 25 ng of Akt1-pcDNA 3.1 (Invitrogen Corp. Cat No. V790-20) The co-transfection is carried out in the presence of Lipofectamine 2000 (Invitrogen corp. Cat No. 11668-019) and OPTI-MEM medium (Gibco Cat No. 31985).
# The cells are then cultured for 48 hours at 37° C. in 25 μl of DMEM medium (Gibco Cat No. 11965-092), to which 10% FCS (Hyclone Cat No. SV30014-03) and 1% antibiotic and antifungal (Gibco Cat No. 15240-062) are added in 384-well plates (Proxiplate 384, Perkin-Elmer Cat No. 6006280).
# The cells are lysed in 50 mM Hepes buffer, pH7, containing 0.1% BSA, 20 mM EDTA, 0.8 M potassium fluoride and 2% TRITON X-100® (octylphenol ethyelene oxide condensate)). This same buffer contains 1.8 ng of phosphospecific antibodies (STK antibody, Upstate Cat No. 35-002) conjugated with the donor (europium cryptate) and 40 ng of anti-FLAG conjugated with the acceptor (cross-linked allophycocyanin, XL 665, CIS bio international Cat No. 61 FG2XLA).
# The plate is incubated for 1 hour at ambient temperature before time-resolved reading.
# The FRET signals are measured on an Acquest 384 fluorimeter (Molecular Device) in TR-FRET mode at 620 nm (emission wavelength of rare earth cryptate) and 665 nm (emission wavelength of allophycocyanin) after excitation by a flash lamp with a bandwidth comprised between 330 and 380 nm. The ratio between the fluorescence emitted at 665 nm (fluorescence of the acceptor) and the fluorescence emitted at 620 nm (fluorescence of the donor) (Ratio 665/620) represents the FRET occurring between the donor (europium cryptate) and the acceptor (Allophycocyanin). […]
# The cells are co-transfected and cultured as described in Example 1. […] The cells are then lysed and the phosphorylated protein substrate detected as described in Example 1.
# In parallel, in a second well, cells are treated in identical manner. After lysis, the total quantity of protein substrate is measured using an anti-c-myc antibody coupled with europium cryptate (2.9 ng/well) (CIS bio international Cat No. 61MYCKLA) and an anti-FLAG antibody coupled with allophycocyanin (40 ng/well).
# The cells are co-transfected with a plasmid coding for the protein substrate labelled by the c-myc and flag tags and with a plasmid coding for Akt1, as described in Example 1. […] In this case the lysate is first placed in the presence of a phosphospecific antibody, coupled with tris-bipyridine europium cryptate (CIS bio international, formula below), and an anti-FLAG antibody coupled with allophycocyanin (in the same quantities as those described in Example 1). […]
# T2 sequence (P31749 whole entry, species assumed): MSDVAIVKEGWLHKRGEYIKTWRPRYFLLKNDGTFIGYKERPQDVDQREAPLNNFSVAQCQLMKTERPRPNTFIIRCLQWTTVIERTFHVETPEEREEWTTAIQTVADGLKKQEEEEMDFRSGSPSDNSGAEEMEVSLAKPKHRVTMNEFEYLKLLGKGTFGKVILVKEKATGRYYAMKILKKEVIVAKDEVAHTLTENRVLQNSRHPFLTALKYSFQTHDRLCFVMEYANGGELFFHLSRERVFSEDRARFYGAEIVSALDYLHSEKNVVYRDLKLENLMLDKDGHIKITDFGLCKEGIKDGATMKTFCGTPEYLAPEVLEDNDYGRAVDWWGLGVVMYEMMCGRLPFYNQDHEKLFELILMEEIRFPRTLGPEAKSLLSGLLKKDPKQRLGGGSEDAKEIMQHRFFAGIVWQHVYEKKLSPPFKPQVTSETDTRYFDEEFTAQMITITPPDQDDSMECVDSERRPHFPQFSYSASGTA
# T1 sequence (Q13557 whole entry): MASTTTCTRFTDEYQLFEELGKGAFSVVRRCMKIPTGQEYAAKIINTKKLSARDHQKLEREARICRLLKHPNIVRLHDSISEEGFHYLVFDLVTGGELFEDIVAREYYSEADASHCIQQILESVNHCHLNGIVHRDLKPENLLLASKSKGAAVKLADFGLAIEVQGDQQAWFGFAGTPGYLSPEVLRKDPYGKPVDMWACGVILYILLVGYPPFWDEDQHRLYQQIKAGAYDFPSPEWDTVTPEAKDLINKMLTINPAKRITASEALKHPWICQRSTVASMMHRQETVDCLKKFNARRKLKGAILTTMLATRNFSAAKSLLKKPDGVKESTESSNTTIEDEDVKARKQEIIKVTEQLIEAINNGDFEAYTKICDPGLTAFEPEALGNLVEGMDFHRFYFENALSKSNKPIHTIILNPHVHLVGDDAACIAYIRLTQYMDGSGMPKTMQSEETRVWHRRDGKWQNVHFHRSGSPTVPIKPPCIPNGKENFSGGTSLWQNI
structure (smiles),measurement,setting,value
C[C@H](CCC(=O)O)C[C@H](C)C[C@H](C)C(=O)/C=C(\O)[C@H](C)C[C@H](C)C/C=C/[C@@H](C)[C@@H](O)[C@@H](C)[C@@H](O)C[C@@H]1CC[C@@](C)([C@H]2CC[C@@](C)([C@@H](C)O)O2)O1 [ionomycin],signal of phosphorylated protein substrate after stimulation,[1],much greater than in its absence
CN[C@@H]1C[C@H]2O[C@@](C)([C@@H]1OC)n1c3ccccc3c3c4c(c5c6ccccc6n2c5c31)C(=O)NC4 [staurosporine],signal corresponding to the phosphorylated protein substrate,"[2]; FIG. 3, HEK293 co-transfected with substrate plasmid and Akt1, 1 hour incubation with increasing concentrations, separate wells",reduces with increasing concentrations
same,signal corresponding to the total protein substrate,"[2]; FIG. 3, anti-c-myc cryptate/anti-FLAG allophycocyanin, second well, increasing concentrations",remains constant whatever the dose of inhibitor
same,signal corresponding to the phosphorylated protein substrate (not standardized),"[2]; FIG. 4, 0.2 nM, 20 nM, 2 μM, separate wells or single well with FRET suppressing agent",sensitive to staurosporine only in the case where it is added to the measurement medium at high concentrations (2 μM)
same,ratio of phosphorylated protein substrate: total protein substrate,"[2]; FIG. 6, signal standardized by total protein substrate signal, 0.2 nM, 20 nM, 2 μM",inhibition of the phosphorylation of the protein substrate
